In this assay the test system is patient with Parkinson's disease, positive for Malassezia infection. Kind of assay: Example 3: Parkinson's patient positive for Malassezia infection given intravenous amphotericin B deoxycholate plus intranasal saline irrigation. Type of assay: in vivo, human. To be noted: i.v. 1.0 mg/kg/day for 3 weeks in combination with intranasal aqueous saline solution, follow-up 6 months after the course.

Procedure: A patient is clinically evaluated by a physician for deterioration of health because of their progression of symptoms of Parkinson's disease which include tremor, speech dysfunction, aberrant personality changes, abulia, and difficulties with mentation. Patient has no overt symptoms of Malassezia infection. […] Patient is treated with an intravenous administration of a commercially available amphotericin formulation of amphotericin B deoxycholate at 1.0 mg/kg/day in combination with a twice daily treatment regimen of intranasal aqueous saline solution. The solution comprises a mixture of 1 teaspoon of baking soda, 1.5 teaspoons of salt, and 1 quart sterilized distilled water. The solution is administered intranasally using a pulsating irrigation device. The pulsating irrigation device sends a gentle pulse of the solution into the nose via a nasal irrigation tip that can reach into and contact with the upper nasal passages. The amphotericin B treatment regimen is discontinued after 3 weeks. The total amount of amphotericin B administered to the patient over the course of treatment is about 1.8 grams. The nasal wash is continued to be administered to the patient indefinitely on a once daily basis. Routine follow-up is conducted by the physician 6 months after completion of the amphotericin B treatment course.

Regarding amphotericin B deoxycholate, the “caregiver report of symptoms” value was “improved mood, improved affect, decreased fatigue, decreased abulia, and improved mentation”. Moreover, the “progression of Parkinson's disease measured with the MDS-UPDRS” value (person) is “halted”.

Source of the values: patent publication US20200061018A1, “METHODS AND COMPOSITIONS FOR TREATING PARKINSON'S DISEASE” (Cove Bio LLC, priority 2016, published 2020).
